From US6340588B1, “Matrices with memories” (Discovery Partners International, Inc., priority 1995, dated 2002) come the findings set out here.

For the assay, the target named is 125I-streptavidin (Streptomyces avidinii, UniProt P22629).
125I-streptavidin, sequence (P22629 25-183): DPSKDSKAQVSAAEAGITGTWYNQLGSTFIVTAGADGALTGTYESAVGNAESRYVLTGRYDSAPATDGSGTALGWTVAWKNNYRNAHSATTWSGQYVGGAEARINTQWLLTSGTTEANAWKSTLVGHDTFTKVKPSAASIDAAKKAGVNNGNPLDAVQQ

Take `O=C1NCC(C(=O)O)N1` (stereo not shown) [2-imidazolidone-4-carboxylic acid]: the “signal in scintillation proximity assay (binding to 125I-streptavidin)” value is “lower signal”.
